Data as given in patent publication US20260183392A1, “METHODS AND KITS FOR DNA EDITING AND TREATING, AMELIORATING AND/OR PREVENTING CANCER” (FC IP Holdings, LLC, priority 2022, published 2026).

Legend:
iPSC = experiment: Cell viability / cell health of engineered iPSC; format: cell-based
Excerpt: FIGS. 3A-3H: induced pluripotent stem cells (iPSC) engineering according to some embodiments. FIG. 3A: GFP knock-in efficiency (on Day 7) at RAB11A locus in iPSC using cssDNA or dsDNA as donor templates. FIG. 3B: Cell viability of cssDNA- and dsDNA-engineered iPSC as measured on Day 3. FIG. 3C: Does-dependent GFP reporter knock-in using GFP reporter cssDNA targeting RAB11A or B2M locus. FIG. 3D: GFP fluorescence and phase contrast imaging of representative engineered iPSC colony. FIG. 3E: Schematic diagram of cssDNA donor templates for multiplexed reporter gene knock-in at RAB11A and B2M loci. FIG. 3F: Dual knock-in of mCherry and GFP report genes at the same RAB11A locus. FIG. 3G: Dual knock-in of mCherry and GFP report genes at RAB11A locus and B2M locus, respectively. […] GFP knock-in efficiency was assessed on Day 7 post electroporation by flow cytometry. […]
The present study next evaluated small-molecule inhibitors that have been reported to enhance knock-in efficiency, including the DNA-dependent protein kinase (DNA-PK) inhibitor M-3814 and “Alt-R HDR enhancer 2” (HDRe.v2), which is described as a nonhomologous end joining (NHEJ) inhibitor (Kath et al., Mol Ther Methods Clin Dev. 2022 April 12:25:311-330; Shy et al., Nat Biotechnol. 2023 April; 41 (4): 521-531; and Tatiossian et al., Mol Ther. 2021 Mar. 3; 29 (3): 1057-1069). […]

[1] = system: RAB11A locus and TRAC locus in human primary T cells; experiment: GFP reporter knock-in at RAB11A or TRAC locus in human primary T cells; format: cell-based; settings: 1 μM for 24 hours vs DMSO; cssDNA donors; Day 7
Protocol: FIGS. 5A-5D: Innate immune response in primary T cells, in accordance with some embodiments. FIG. 5A: Schematic diagram of the GFP reporter cssDNA targeting RAB11A locus and TRAC locus (Upper). GFP reporter knock-in efficiency with cssDNA donor templates in human primary T cells. Immediately after electroporation, cells were treated with either DMSO or 1 μM M-3814 for 24 hours. The knock-in efficiency was examined on Day 7 post electroporation. FIG. 5B. Secreted IFN-γ and TNF-α cytokines levels in cultured primary T medium after electroporation with buffer, dsDNA, cssDNA or mRNA molecules. Conditioned media were collected for cytokine analysis using the Ella immunoassay platform with selected panels. FIGS. 5C-5D: Gene set enrichment analysis (GSEA) enrichment analysis of interferon gamma response genes on the differential expression genes (DEG) of from the dsDNA or cssDNA treated primary T cells. […]
Genetically engineered T cell immunotherapies have provided remarkable clinical success to treat B cell acute lymphoblastic leukemia and have the potential to provide therapeutic benefit for numerous other cancers, infectious diseases, and autoimmunity. […] Primary T cells were co-electroplated with respective RNPs, and knock-in efficiency was determined on Day 7 post electroporation by GFP^+ cell percentage using flow cytometry. […]

[2] = system: TRAC locus in primary T cells; experiment: Anti-CD19xCD22 CAR knock-in at TRAC locus in primary T cells (Protein L, flow cytometry); format: cell-based, human; settings: 2 μg of cssDNA plus 1 μM M-3814; Day 7
Excerpt: FIGS. 7A-7I: CAR-T cell engineering with cssDNA, in accordance with some embodiments. FIG. 7A: Schematic diagram of nonviral CAR-T cell engineering process. Pan T cells are isolated from peripheral blood and activated on day 0 with anti-CD3/anti-CD28 TransAct. Cells are electroporated using the Lonza nucleofector on day 2 with Cas9 RNPs+cssDNA HDR donor templates and then expanded for a total of 7-10 days. FIG. 7B: Representative day 7 flow cytometry graphs showing CAR knock-in for Mock (un-engineered) and cssDNA-engineered T cells with DMSO or 1 μM M-3814 treatments. FIG. 7C: Representative day 7 flow plots and quantifications of CAR knock-in for mock (un-engineered), cssDNA- or AAV6-engineered T cells. Cells were treated with 1 μM M-3814 for 1 day immediately after electroporation. FIG. 7D: Expansion ability of engineered CAR-T cells. FIG. 7E: In vitro killing of NALM6 acute lymphoblastic leukemia cell line with cssDNA-, AAV6-engineered CAR-T cells in comparison to unmodified T cells from same blood donors after 24 hours of co-culture. The in vitro killing measured by live cell imaging using IncuCyte® live cell imaging system. […] FIG. 7G: the data of FIG. 7F, expressed as a bar chart. […] I. FIG. 7I, Tumor burden shown as bioluminescent signal quantified per animal every week over a 21-day period. n=5 mice per group. […]

human B2M locus = experiment: Screen of crRNA for Cpf1 at human B2M locus (cleavage efficiency)

| Compound | live cell counts (iPSC; at the chosen concentrations) | reduction in cell viability (iPSC; higher doses, day 4 post-electroporation) | increase of knock-in efficiency [1] | knock-in efficiency (percentage of CAR+ cells) [2] [%] | cleavage efficiency (human B2M locus) |
| --- | --- | --- | --- | --- | --- |
| COc1ccc([C@@H](O)c2cc(-c3ncnc4cc(N5CCOCC5)ccc34)c(F)cc2Cl)nn1 [M-3814] | generally unaffected | roughly 38% | 60-150% | 56.3 | – |
| Cpf1-crRNA: crRNA for Cpf1 at human B2M locus identified by screening (guide AGUGGGGGUGAAUUCAGUGU; chemistry not fully specified) | – | – | – | – | over 95% |
